From ChEMBL document CHEMBL5380777, “Efficacy, Mechanism, and Structure-Activity Relationship of 6-Methoxy Benzofuran Derivatives as a Useful Tool for Senile Osteoporosis” (J Med Chem, 2023)
Activity calls are given as the source filed them. The calls are words filed in the database; no cut-off is given here.

Experiments:
[1] = Toxicity in 2.5 months old SAMP-6 rapid aging mouse model assessed as change in ALP level administered at 30 mg/kg/day, IG continuously for 3 months; format: organism-based; settings: in vivo, po, 2190 h
Osteoblast [2] = experiment: Upregulation of transcription factor MYC expression in 16 months old C57 mouse osteoblast by scRNA-seq analysis; format: functional, cell-based
Osteoblast [3] = experiment: Upregulation of BMP-2 expression in 16 months old C57 mouse osteoblast by scRNA-seq analysis; format: functional, cell-based
Mus musculus [4] = experiment: Anti osteoporosis in 16 months old C57 mouse assessed as GrP level in femur administered at 30 mg/kg/day, IG continuously for 4 months by scRNA-seq analysis (reference value: 12.75%); format: functional; settings: 2920 h
Osteocyte = experiment: Upregulation of BMP-2 expression in 16 months old C57 mouse osteocytes by scRNA-seq analysis; format: functional, cell-based
Mus musculus [5] = experiment: Anti osteoporosis in 16 months old C57 mouse assessed as osteoclast level in femur administered at 30 mg/kg/day, IG continuously for 4 months by scRNA-seq analysis (reference value: 6.52%); format: functional; settings: 2920 h
[6] = Toxicity in 16 months old C57 mouse assessed as change in urea level administered at 30 mg/kg/day, IG continuously for 4 months; format: organism-based; settings: in vivo, po, 2920 h
[7] = Toxicity in 2.5 months old SAMP-6 rapid aging mouse model assessed as change in urea level administered at 30 mg/kg/day, IG continuously for 3 months; format: organism-based; settings: in vivo, po, 2190 h
Osteoblast [8] = experiment: Upregulation of transcription factor PSMD12 expression in 16 months old C57 mouse osteoblast by scRNA-seq analysis; format: functional, cell-based
Mus musculus [9] = experiment: Anti osteoporosis in 2.5 months old SAMP-6 rapid aging mouse model assessed as upregulation of serum BMP2 administered at 30 mg/kg/day, IG in presence of ALN continuously for 3 months […]; format: functional, organism-based
[10] = Toxicity in 16 months old C57 mouse assessed as change in serum ALT level administered at 30 mg/kg/day, IG continuously for 4 months; format: organism-based; settings: in vivo, po, 2920 h
[11] = Toxicity in 16 months old C57 mouse assessed as change in serum AST level administered at 30 mg/kg/day, IG continuously for 4 months; format: organism-based; settings: in vivo, po, 2920 h
Osteoclast = experiment: Upregulation of BMP-2 expression in 16 months old C57 mouse osteoclast by scRNA-seq analysis; format: functional, cell-based
[12] = Toxicity in 2.5 months old SAMP-6 rapid aging mouse model assessed as change in creatinine level administered at 30 mg/kg/day, IG continuously for 3 months; format: organism-based; settings: in vivo, po, 2190 h
Mus musculus [13] = experiment: Anti osteoporosis in 16 months old C57 mouse assessed as fold increase in chondrocytes level in femur administered at 30 mg/kg/day, IG continuously for 4 months by scRNA-seq analysis relative to control; format: functional; settings: 2920 h
[14] = Toxicity in 2.5 months old SAMP-6 rapid aging mouse model assessed as change in triglyceride level administered at 30 mg/kg/day, IG continuously for 3 months in presence of ALN; format: organism-based; settings: in vivo, po, 2190 h
[15] = Toxicity in 16 months old C57 mouse assessed as change in albumin level administered at 30 mg/kg/day, IG continuously for 4 months; format: organism-based; settings: in vivo, po, 2920 h
[16] = Toxicity in 16 months old C57 mouse assessed as change in alkaline phosphatase level administered at 30 mg/kg/day, IG continuously for 4 months; format: organism-based; settings: in vivo, po, 2920 h
Mus musculus [17] = experiment: Anti osteoporosis in 16 months old C57 mouse assessed as endothelial cell level in femur administered at 30 mg/kg/day, IG continuously for 4 months by scRNA-seq analysis (reference value: 2.34%); format: functional; settings: 2920 h
[18] = Acute toxicity in wildtype 3 days post-fertilization AB zebrafish at more than 10 uM; parameters: species or system Danio rerio; settings: in vivo, 72 h
Osteoblast [19] = experiment: Upregulation of transcription factor TAX1BP1 expression in 16 months old C57 mouse osteoblast by scRNA-seq analysis; format: functional, cell-based
Osteoblast [20] = experiment: Upregulation of transcription factor XBP1 expression in 16 months old C57 mouse osteoblast by scRNA-seq analysis; format: functional, cell-based
Osteoblast [21] = experiment: Regulation of osteogenesis in 16 months old C57 mouse osteoblast endoplasmic reticulum assessed as increase in Dnaja1 gene by scRNA-seq analysis; format: functional, cell-based
Mus musculus [22] = experiment: Anti osteoporosis in 16 months old C57 mouse assessed as chondroblast level in femur administered at 30 mg/kg/day, IG continuously for 4 months by scRNA-seq analysis (reference value: 2.49%); format: functional; settings: 2920 h
Osteoblast [23] = experiment: Regulation of osteogenesis in 16 months old C57 mouse osteoblast endoplasmic reticulum assessed as increase in Hsp90ab1 gene by scRNA-seq analysis; format: functional, cell-based
Osteoblast [24] = experiment: Regulation of osteogenesis in 16 months old C57 mouse osteoblast endoplasmic reticulum assessed as increase in Hsp90aa1 gene by scRNA-seq analysis; format: functional, cell-based
Mus musculus [25] = experiment: Anti osteoporosis in 16 months old C57 mouse assessed as T cell level in femur administered at 30 mg/kg/day, IG continuously for 4 months by scRNA-seq analysis (reference value: 10.54%); format: functional; settings: 2920 h
Osteoblast [26] = experiment: Regulation of osteogenesis in 16 months old C57 mouse osteoblast endoplasmic reticulum assessed as increase in Hsph1 gene by scRNA-seq analysis; format: functional, cell-based
Osteoblast [27] = experiment: Upregulation of transcription factor H1F0 expression in 16 months old C57 mouse osteoblast by scRNA-seq analysis; format: functional, cell-based
Mus musculus [28] = experiment: Anti osteoporosis in 16 months old C57 mouse assessed as monocyte level in femur administered at 30 mg/kg/day, IG continuously for 4 months by scRNA-seq analysis (reference value: 12.2%); format: functional; settings: 2920 h
Mus musculus [29] = experiment: Anti osteoporosis in 2.5 months old SAMP-6 rapid aging mouse model assessed as bone mass maintenance administered at 30 mg/kg/day, IG continuously for 3 months; format: functional, organism-based
Mus musculus [30] = experiment: Anti osteoporosis in 16 months old C57 mouse assessed as increase in bone mass administered at 30 mg/kg/day, IG continuously for 4 months by micro CT analysis relative to young control group; format: functional, organism-based
Mus musculus [31] = experiment: Anti osteoporosis in 16 months old C57 mouse assessed as proliferating granulocyte level in femur administered at 30 mg/kg/day, IG continuously for 4 months by scRNA-seq analysis (reference value: 6.29%); format: functional; settings: 2920 h
[32] = Toxicity in 2.5 months old SAMP-6 rapid aging mouse model assessed as change in serum ALT level administered at 30 mg/kg/day, IG continuously for 3 months; format: organism-based; settings: in vivo, po, 2190 h
Osteoblast [33] = experiment: Upregulation of transcription factor JUND expression in 16 months old C57 mouse osteoblast by scRNA-seq analysis; format: functional, cell-based
Mus musculus [34] = experiment: Anti osteoporosis in 16 months old C57 mouse assessed as reconstruction of bone microstructure administered at 30 mg/kg/day, IG continuously for 4 months by micro CT analysis relative to young control group; format: functional, organism-based
Mus musculus [35] = experiment: Anti osteoporosis in 16 months old C57 mouse assessed as osteoblast level in femur administered at 30 mg/kg/day, IG continuously for 4 months by scRNA-seq analysis (reference value: 5.05%); format: functional; settings: 2920 h
Mus musculus [36] = experiment: Anti osteoporosis in 2.5 months old SAMP-6 rapid aging mouse model assessed as increase in bone mass administered at 30 mg/kg/day, IG continuously for 3 months by micro CT analysis; format: functional, organism-based
Osteoblast [37] = experiment: Regulation of osteogenesis in 16 months old C57 mouse osteoblast endoplasmic reticulum assessed as increase in CRYAB gene by scRNA-seq analysis; format: functional, cell-based

COc1ccc2cc(C(=O)NCCN(C)C)oc2c1.CS(=O)(=O)O
Activity [1]: Non-Toxic | Activity (Osteoblast [2]): Active | Activity (Osteoblast [3]): Active | Activity (Mus musculus [4]): 6.51% | Activity (Osteocyte): Active | Activity (Mus musculus [5]): 12.12% | Activity [6]: Non-Toxic | Activity [7]: Non-Toxic | Activity (Osteoblast [8]): Active | Activity (Mus musculus [9]): Active | Activity [10]: Non-Toxic | Activity [11]: Non-Toxic | Activity (Osteoclast): Active | Activity [12]: Non-Toxic | fold change (FC) (Mus musculus [13]): 2 | Activity [14]: Non-Toxic | Activity [15]: Non-Toxic | Activity [16]: Non-Toxic | Activity (Mus musculus [17]): 2.38% | Activity [18]: Toxic | Activity (Osteoblast [19]): Active | Activity (Osteoblast [20]): Active | Activity (Osteoblast [21]): Active | Activity (Mus musculus [22]): 3.77% | Activity (Osteoblast [23]): Active | Activity (Osteoblast [24]): Active | Activity (Mus musculus [25]): 8.96% | Activity (Osteoblast [26]): Active | Activity (Osteoblast [27]): Active | Activity (Mus musculus [28]): 4.94% | Activity (Mus musculus [29]): Active | Activity (Mus musculus [30]): Active | Activity (Mus musculus [31]): 4.71% | Activity [32]: Non-Toxic | Activity (Osteoblast [33]): Active | Activity (Mus musculus [34]): Active | Activity (Mus musculus [35]): 15.03% | Activity (Mus musculus [36]): Active | Activity (Osteoblast [37]): Active
